The results in this text go back to patent US9957252B2, “Metalloenzyme inhibitor compounds as fungicides” (Dow AgroSciences LLC, priority 2014, dated 2018).

Read-outs that look alike come from different tables or passages of the source.

Format in all cases: in vivo, Mycosphaerella graminicola on wheat plants (variety Yuma)
Test [1] concerns standard laboratory SEPTTR isolate (SI SEPTTR); Mycosphaerella graminicola; Anamorph: Septoria tritici. In words: Leaf blotch of wheat fungicidal activity, Type A assay (technical grade in acetone/water with Triton X-100, booth sprayer), standard laboratory isolate. Particulars: Zymoseptoria tritici, 24 h, 1 Day Protectant, wheat seedlings (Yuma), read-out: Disease control, SI SEPTTR Type A Assay (50 ppm) 1DP. The method, then: (§1) Evaluation of Fungicidal Activity: Leaf Blotch of Wheat (Mycosphaerella graminicola; Anamorph: Septoria tritici; Bayer code SEPTTR):
(§2) For Type A assays, technical grades of the experimental fungicides in Table 4 below were dissolved in acetone, and then mixed with nine volumes of water containing 110 ppm Triton X-100. The fungicide solutions were applied onto wheat seedlings using an automated booth sprayer. For Type B assays, emulsifiable concentrate (EC) formulations of technical grades of experimental fungicides in Table 4 below were prepared at 10% (w/v), and then mixed with 150 volumes of 0.1% Trycol 5941. The fungicide solutions were applied onto wheat seedlings using an automated track sprayer at 200 L/ha. All sprayed plants were allowed to air dry prior to further handling.
(§3) Wheat plants (variety Yuma) were grown from seed in a greenhouse in 50% mineral soil/50% soil-less Metro mix until the first leaf was fully emerged, with 7-10 seedlings per pot. Prior to or after application of experimental fungicides, plants were inoculated either with spores of a standard laboratory SEPTTR isolate (SI SEPTTR) or with spores from a SEPTTR field isolate collected from Wellsbourne, England in 2012 (FI SEPTTR). After inoculation, the plants were kept for 3 days at 20° C. in 100% relative humidity (one day in a dark dew chamber followed by two days in a lighted dew chamber). Plants were then transferred to a 20° C. greenhouse for disease development. When disease symptoms were fully expressed on untreated plants, infection levels on treated plants were assessed on a scale of 0 to 100 percent disease severity. Percent disease control was calculated using the ratio of disease severity on treated plants relative to untreated plants.

A short description of test [2]: Leaf blotch of wheat fungicidal activity, Type B assay (10% EC formulation in 0.1% Trycol 5941, track sprayer 200 L/ha), field isolate. As to conditions: Zymoseptoria tritici, 72 h, field isolate (Wellsbourne, England 2012), wheat seedlings (Yuma). The method, then: as §1, §2, §3
For test [3], the system named is standard laboratory SEPTTR isolate (SI SEPTTR); Mycosphaerella graminicola; Anamorph: Septoria tritici. As to the kind of experiment: Leaf blotch of wheat fungicidal activity, Type B assay (10% EC formulation in 0.1% Trycol 5941, track sprayer 200 L/ha), standard laboratory isolate. As to conditions: Zymoseptoria tritici, 72 h, wheat seedlings (Yuma). The method, then:
as §1, §2, §3

Where [4] appears, read: 3 Day Curative, read-out: Disease control, FI SEPTTR Type B Assay (100 g/ha) 3DC.
The mark [5] stands for this setting: 3 Day Protectant, read-out: Disease control, FI SEPTTR Type B Assay (100 g/ha) 3DP.
Setting [6] is: 3 Day Curative, read-out: Disease control, SI SEPTTR Type B Assay (100 g/ha) 3DC.
[7] abbreviates: 3 Day Protectant, read-out: Disease control, SI SEPTTR Type B Assay (100 g/ha) 3DP.

Regarding `CC(C)(C)C(O)(c1cncnc1)c1ccc(-c2ccc(OCC(F)(F)F)cc2)cc1Cl` (stereo not shown) [Compound 25], the pest or weed control at 50 ppm in test [1] is 80 to 100%. Moreover, the pest or weed control at 100 g/ha in test [2] (setting [4]) fell in the range of 80 to 100%; in test [2] (setting [5]), 80 to 100%; in test [3] (setting [6]), 80 to 100%; in test [3] (setting [7]), 60 to 79%.
In the case of `CC(C)(C)C(O)(c1cncnc1)c1ccc(-c2ccc(Cl)cc2)cc1Cl` (stereo not shown) [Compound 22], the pest or weed control at 100 g/ha in test [2] (setting [4]), in test [2] (setting [5]), in test [3] (setting [6]) and in test [3] (setting [7]) was 80 to 100% throughout.
Turning to `CC(C)(C)C(O)(c1ccc(-c2ccc(C3(C#N)CC3)cc2)cc1)c1cncnc1` (stereo not shown) [Compound 32], the pest or weed control at 50 ppm in test [1] lay within 80 to 100%. The pest or weed control at 100 g/ha in test [2] (setting [4]) was in the range of 60 to 79%; in test [2] (setting [5]), 80 to 100%; in test [3] (setting [6]), 80 to 100%; in test [3] (setting [7]), 80 to 100%.
For the molecule `CC(C)(C)C(O)(c1cncnc1)c1ccc(-c2ccc(C#N)cc2)cc1F` (stereo not shown) [Compound 17], the pest or weed control at 100 g/ha in test [2] (setting [4]), in test [2] (setting [5]), in test [3] (setting [6]) and in test [3] (setting [7]) was 80 to 100% throughout.
Take `CC(C)(C)C(O)(c1cncnc1)c1ccc(-c2ccc(C(F)(F)F)nc2)cc1Cl` (stereo not shown) [Compound 23]: the pest or weed control at 100 g/ha in test [2] (setting [4]), in test [2] (setting [5]), in test [3] (setting [6]) and in test [3] (setting [7]) was 80 to 100% each time.
Take `CC(C)(C)C(O)(c1cncnc1)c1ccc(-c2ccc(OC(F)F)cc2)cc1Cl` (stereo not shown) [Compound 10]: the pest or weed control at 50 ppm in test [1] lay in the range of 80 to 100%. Also, the pest or weed control at 100 g/ha was in the range of 80 to 100% in test [2] (setting [4]), 60 to 79% in test [2] (setting [5]), 80 to 100% in test [3] (setting [6]) and 80 to 100% in test [3] (setting [7]).
Regarding `CC(C)(C)C(O)(c1ccc(-c2ccc(OCC(F)(F)F)cc2)cc1)c1cncnc1` (stereo not shown) [Compound 14], in test [1], the pest or weed control at 50 ppm was 80 to 100%. Further, the pest or weed control at 100 g/ha in test [2] (setting [4]) lay within 80 to 100%; in test [2] (setting [5]) it was 60 to 79%; in test [3] (setting [6]), 80 to 100%; in test [3] (setting [7]), 80 to 100%.
In the case of `CC(C)(C)C(O)(c1cncnc1)c1ccc(-c2ccc(C#N)cc2)cc1Cl` (stereo not shown) [Compound 9], the pest or weed control at 50 ppm in test [1] fell in the range of 80 to 100%. Moreover, the pest or weed control at 100 g/ha was in the range of 80 to 100% in test [2] (setting [4]), 80 to 100% in test [2] (setting [5]), 80 to 100% in test [3] (setting [6]) and 60 to 79% in test [3] (setting [7]).
As for `CC(C)(C)C(O)(c1ccc(-c2ccc(OC(F)F)cc2)cc1)c1cncnc1` (stereo not shown) [Compound 2], the pest or weed control at 50 ppm in test [1] lay within 80 to 100%. Besides, the pest or weed control at 100 g/ha in test [2] (setting [4]), in test [2] (setting [5]), in test [3] (setting [6]) and in test [3] (setting [7]) was 80 to 100% each time.
With `CC(C)(C)C(O)(c1cncnc1)c1ccc(-c2ccc(OC(F)(F)F)cc2)cc1F` (stereo not shown) [Compound 15], the pest or weed control at 100 g/ha in test [2] (setting [4]) fell in the range of 60 to 79%; in test [2] (setting [5]), 80 to 100%; in test [3] (setting [6]), 80 to 100%; in test [3] (setting [7]) it was 80 to 100%.
For the molecule `CC(C)(C)C(O)(c1ccc(-c2ccc(SC(F)(F)F)cc2)cc1)c1cncnc1` (stereo not shown) [Compound 19], the pest or weed control at 100 g/ha in test [2] (setting [4]) is 80 to 100%; in test [2] (setting [5]), 80 to 100%; in test [3] (setting [6]) it was 80 to 100%; in test [3] (setting [7]) it was 60 to 79%.
Take `CC(C)(C)C(O)(c1cncnc1)c1ccc(-c2ccc(OCC(F)(F)F)cc2)cc1F` (stereo not shown) [Compound 26]: the pest or weed control at 50 ppm in test [1] is 80 to 100%. In addition, the pest or weed control at 100 g/ha in test [2] (setting [4]), in test [2] (setting [5]), in test [3] (setting [6]) and in test [3] (setting [7]) was 80 to 100% in each case.
Turning to `CC(C)(C)C(O)(c1ccc(-c2ccc(OC(F)(F)F)cc2)cc1)c1cncnc1` (stereo not shown) [Compound 1, 2,2-dimethyl-1-(pyrimidin-5-yl)-1-(4′-(trifluoromethoxy)-[1,1′-biphenyl]-4-yl)propan-1-ol], the pest or weed control at 50 ppm in test [1] lay within 80 to 100%. For the same molecule, the pest or weed control at 100 g/ha in test [2] (setting [4]), in test [2] (setting [5]), in test [3] (setting [6]) and in test [3] (setting [7]) was 80 to 100% throughout.
Regarding `CC(C)(C)C(O)(c1cncnc1)c1ccc(-c2ccc(OC(F)F)cc2)cc1F` (stereo not shown) [Compound 16], the pest or weed control at 100 g/ha in test [2] (setting [4]), in test [2] (setting [5]), in test [3] (setting [6]) and in test [3] (setting [7]) was 80 to 100% each time.
Regarding `Cc1cc(-c2ccc(OC(F)(F)F)cc2F)ccc1C(O)(c1cncnc1)C(C)(C)C` (stereo not shown) [Compound 41], the pest or weed control at 50 ppm in test [1] lay within 80 to 100%.
Turning to `CC(C)(C)C(O)(c1ccc(-c2ccc(C#N)cc2)cc1)c1cncnc1` (stereo not shown) [Compound 3], the pest or weed control at 50 ppm in test [1] was in the range of 80 to 100%. In addition, the pest or weed control at 100 g/ha in test [2] (setting [4]) was 80 to 100%; in test [2] (setting [5]), 60 to 79%; in test [3] (setting [6]) it was 60 to 79%; in test [3] (setting [7]) it was 60 to 79%.
With `CC(C)(C)C(O)(c1ccc(-c2cccc(OC(F)(F)F)c2)cc1)c1cncnc1` (stereo not shown) [Compound 11], the pest or weed control at 50 ppm in test [1] was 80 to 100%. Besides, the pest or weed control at 100 g/ha in test [2] (setting [4]) fell in the range of 60 to 79%; in test [2] (setting [5]), 60 to 79%; in test [3] (setting [6]), 60 to 79%; in test [3] (setting [7]), 80 to 100%.
For the molecule `COc1cc(-c2ccc(C#N)cc2)ccc1C(O)(c1cncnc1)C(C)(C)C` (stereo not shown) [Compound 47], in test [1], the pest or weed control at 50 ppm lay in the range of 80 to 100%.
Still for that read-out and setting: under `CC(C)(C)C(O)(c1cncnc1)c1ccc(-c2ccccc2)cc1F` (stereo not shown) [Compound 28] stands 80 to 100%.
Still for that read-out and setting: then `COc1cc(-c2ccc(OC(F)(F)F)cc2F)ccc1C(O)(c1cncnc1)C(C)(C)C` (stereo not shown) [Compound 53], with 80 to 100%.
Consider `CC(C)(C)C(O)(c1cncnc1)c1ccc(-c2ccc(C(F)(F)F)nc2)cc1F` (stereo not shown) [Compound 24], for which the pest or weed control at 100 g/ha in test [2] (setting [4]), in test [2] (setting [5]), in test [3] (setting [6]) and in test [3] (setting [7]) was 80 to 100% throughout.
Regarding `Cc1cc(-c2ccc(C(C)(C)C#N)cc2)ccc1C(O)(c1cncnc1)C(C)(C)C` (stereo not shown) [Compound 42], in test [1], the pest or weed control at 50 ppm lay in the range of 80 to 100%.
Turning to `CC(C)(C)C(O)(c1cncnc1)c1ccc(-c2ccc(OC(F)(F)F)cc2)cc1Cl` (stereo not shown) [Compound 8], the pest or weed control at 50 ppm in test [1] lay within 80 to 100%. Also, the pest or weed control at 100 g/ha in test [2] (setting [4]), in test [2] (setting [5]), in test [3] (setting [6]) and in test [3] (setting [7]) was 80 to 100% throughout.
Regarding `CC(C)(C)C(O)(c1ccc(-c2ccc(OCC(F)(F)F)cc2)cc1)c1cccnc1` (stereo not shown) [Compound 57], in test [1], the pest or weed control at 50 ppm is 80 to 100%.
In the case of `Cc1cc(OC(F)(F)F)ccc1-c1ccc(C(O)(c2cccnc2)C(C)(C)C)cc1` (stereo not shown) [Compound 63], in test [1], the pest or weed control at 50 ppm is 80 to 100%.
Take `CC(C)(C)C(O)(c1cncnc1)c1ccc(-c2ccc(C(F)(F)F)cc2F)cc1Cl` (stereo not shown) [Compound 30]: the pest or weed control at 50 ppm in test [1] lay in the range of 80 to 100%. Also, the pest or weed control at 100 g/ha in test [2] (setting [4]), in test [2] (setting [5]), in test [3] (setting [6]) and in test [3] (setting [7]) was 80 to 100% each time.
For the molecule `CC(C)(C)C(O)(c1ccc(-c2ccc(C#N)cc2)cc1)c1cccnc1` (stereo not shown) [Compound 58], the pest or weed control at 50 ppm in test [1] lay in the range of 80 to 100%.
`CC(C)(C)C(O)(c1ccc(-c2ccc(C3(C#N)CC3)cc2)cc1)c1cccnc1` (stereo not shown) [Compound 60]: the pest or weed control at 50 ppm in test [1] is 80 to 100%.
